Data published in the NIST ThermoML archive (doi:10.1016/j.jct.2016.11.002).

Experiments:
[1] = xn = mol fraction of the nth substance listed; conditions: 100 kPa, Liquid; for speed of sound: Frequency=3 MHz, Single path-length method; for mass density: Vibrating tube method
[2] = refractive index (Na D-line) (dimensionless); xn = mol fraction of the nth substance listed; conditions: 100 kPa, Liquid, Standard Abbe refractometry

COCCO [2-methoxyethan-1-ol] + CCOC(=O)OCC
Conditions	mass density, [1] [kg/m3]	refractive index, [2]	speed of sound, [1] [m/s]
298.15 K, x2 = 0	960.32	1.4001	1342.1
298.15 K, x2 = 0.0645	960.64	1.3989	1322.5
298.15 K, x2 = 0.1406	961.01	1.3976	1302.2
298.15 K, x2 = 0.2248	961.49	1.3963	1282.2
298.15 K, x2 = 0.3025	961.99	1.3951	1265.8
298.15 K, x2 = 0.3928	962.65	1.3936	1248.7
298.15 K, x2 = 0.4994	963.51	1.3916	1231.2
298.15 K, x2 = 0.6007	964.44	1.3897	1216.9
298.15 K, x2 = 0.7212	965.66	1.3874	1202.5
298.15 K, x2 = 0.8496	967.12	1.3851	1189.7
303.15 K, x2 = 0	955.71	1.3981	1324.7
303.15 K, x2 = 0.0645	955.91	1.3969	1304.6
303.15 K, x2 = 0.1406	956.16	1.3957	1283.8
303.15 K, x2 = 0.2248	956.52	1.3943	1263.4
303.15 K, x2 = 0.3025	956.91	1.3931	1246.7
303.15 K, x2 = 0.3928	957.45	1.3915	1229.4
303.15 K, x2 = 0.4994	958.2	1.3895	1211.7
303.15 K, x2 = 0.6007	959.03	1.3876	1197.2
303.15 K, x2 = 0.7212	960.16	1.3853	1182.5
303.15 K, x2 = 0.8496	961.54	1.3829	1169.5
308.15 K, x2 = 0	951.08	1.3961	1307.4
308.15 K, x2 = 0.0645	951.16	1.395	1286.7
308.15 K, x2 = 0.1406	951.29	1.3938	1265.4
308.15 K, x2 = 0.2248	951.51	1.3924	1244.7
308.15 K, x2 = 0.3025	951.79	1.3911	1227.7
308.15 K, x2 = 0.3928	952.22	1.3894	1210.2
308.15 K, x2 = 0.4994	952.85	1.3875	1192.4
308.15 K, x2 = 0.6007	953.59	1.3855	1177.7
308.15 K, x2 = 0.7212	954.63	1.3832	1162.7
308.15 K, x2 = 0.8496	955.94	1.3807	1149.3
313.15 K, x2 = 0	946.42	1.3943	1290
313.15 K, x2 = 0.0645	946.39	1.3931	1268.8
313.15 K, x2 = 0.1406	946.49	1.3918	1247
313.15 K, x2 = 0.2248	946.58	1.3904	1226
313.15 K, x2 = 0.3025	946.66	1.389	1208.8
313.15 K, x2 = 0.3928	946.97	1.3874	1191.2
313.15 K, x2 = 0.4994	947.49	1.3854	1173.2
313.15 K, x2 = 0.6007	948.13	1.3834	1158.3
313.15 K, x2 = 0.7212	949.08	1.3811	1143
313.15 K, x2 = 0.8496	950.31	1.3786	1129.4
318.15 K, x2 = 0	941.72	1.3922	1272.7
318.15 K, x2 = 0.0645	941.57	1.3913	1251
318.15 K, x2 = 0.1406	941.44	1.39	1228.8
318.15 K, x2 = 0.2248	941.41	1.3885	1207.4
318.15 K, x2 = 0.3025	941.48	1.3871	1190.1
318.15 K, x2 = 0.3928	941.67	1.3853	1172.3
318.15 K, x2 = 0.4994	942.07	1.3833	1154.1
318.15 K, x2 = 0.6007	942.61	1.3814	1139.1
318.15 K, x2 = 0.7212	943.46	1.379	1123.5
318.15 K, x2 = 0.8496	944.62	1.3764	1109.7
323.15 K, x2 = 0	936.89	1.3902	1255.4
323.15 K, x2 = 0.0645	936.71	1.3894	1233.2
323.15 K, x2 = 0.1406	936.46	1.3881	1210.6
323.15 K, x2 = 0.2248	936.29	1.3865	1188.9
323.15 K, x2 = 0.3025	936.25	1.385	1171.4
323.15 K, x2 = 0.3928	936.34	1.3832	1153.5
323.15 K, x2 = 0.4994	936.62	1.3812	1135.1
323.15 K, x2 = 0.6007	937.08	1.3792	1119.9
323.15 K, x2 = 0.7212	937.86	1.3768	1104.2
323.15 K, x2 = 0.8496	938.96	1.3743	1090
